Assay results taken from patent US20060094764A1, “Cyanothiophenes, their preparation and their use in pharmaceutical compositions” (Boehringer Ingelheim International GmbH, priority 2004, published 2006).
Counter-ions that a name gives are not always drawn.

melting point	Structure (SMILES)
208 to 212 °C	N#Cc1c(NC(=O)C2CCCCC2)sc(-c2ccccc2)c1C#N
175 to 180 °C	N#Cc1c(NC(=O)C2CCCCC2)sc(-c2ccccc2)c1Cl
209 to 211 °C	Cc1ccc(C)c(-c2sc(NC(=O)[C@H]3C[C@H]4C=C[C@@H]3C4)c(C#N)c2C(F)(F)F)c1
168 to 169 °C	Cc1ccc(C)c(-c2cc(C#N)c(NC(=O)[C@@H]3C[C@@H]4CC[C@H]3C4)s2)c1
208 to 210 °C	Cc1ccc(C)c(-c2sc(NC(=O)[C@@H]3C[C@H]4CC[C@@H]3CC4)c(C#N)c2Cl)c1 (stereo in doubt)
116 to 129 °C (dec.)	Cc1ccc(N(C)CCCc2sc(NC(=O)[C@@H]3C[C@@H]4CC[C@H]3C4)c(C#N)c2C)cc1 (as salt: hydrochloride)
242 to 244 °C	Cc1ccc(C)c(C2SC(NC(=O)C3CC4CCC3CC4)=C(C#N)C2(Cl)C(F)(F)F)c1 (stereo not shown)
213 to 214 °C	N#Cc1c(NC(=O)C2CCCCC2)sc(-c2ccccc2)c1[N+](=O)[O-]
231 to 233 °C	Cc1ccc(C)c(-c2sc(NC(=O)[C@@H]3C[C@@H]4CC[C@H]3C4)c(C#N)c2C(F)(F)F)c1
242 °C	Cc1ccc(C)c(-c2sc(NC(=O)[C@H]3C[C@@H]4CC[C@H]3C4)c(C#N)c2C(F)(F)F)c1
117 to 119 °C	Cc1ccc(C)c(-c2sc(NC(=O)[C@@H]3C[C@@H]4CC[C@H]3C4)c(C#N)c2Cl)c1

Continued, molecule first:

Structure (SMILES)	melting point
Cc1ccc(C)c(-c2sc(NC(=O)[C@@H]3C[C@@H]4C=C[C@H]3C4)c(C#N)c2C(F)(F)F)c1	213 to 214 °C
Cc1ccc(C)c(-c2sc(NC(=O)[C@@H]3C[C@H]4CC[C@@H]3C4)c(C#N)c2C(F)(F)F)c1	239 to 240 °C
Cc1ccc(C)c(-c2sc(NC(=O)[C@@H]3C[C@H]4C=C[C@@H]3C4)c(C#N)c2C(F)(F)F)c1	226 to 227 °C
Cc1ccc(C)c(-c2sc(NC(=O)[C@H]3C[C@H]4CC[C@@H]3C4)c(C#N)c2C(F)(F)F)c1	230 °C
Cc1ccc(N(C)CCCc2sc(NC(=O)C3CC4CCC3CC4)c(C#N)c2C)cc1 (stereo not shown) (as salt: hydrochloride)	133 to 140 °C
Cc1c(CCCN(C)c2ccccn2)sc(NC(=O)C2CC3CCC2CC3)c1C#N (stereo not shown) (as salt: hydrochloride)	> 80 °C (dec.)
N#Cc1c(NC(=O)C2CCCCC2)sc(-c2ccccc2)c1Br	167 to 168 °C
CCCc1sc(NC(=O)C2CCCCC2)c(C#N)c1OC	146 to 147 °C
